Biological target: mGluR4 (UniProt Q14833)
Assay: mGluR4 potentiation assay: increase in response to an EC20 concentration of agonist (species not given)
Type: cell-based
Details: EC50 for potentiation of mGluR4; table does not state human or rat
Outline: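 Human mGluR4 was expressed in CHO cells read with a Ca2+-sensitive dye; rat mGluR4 was co-expressed with GIRK in […] read by thallium flux. Potentiation is the rise over agonist-alone response, with EC50 and maximal potentiation from non-linear fits.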

| Compound | EC50 [nM] |
| --- | --- |
| Cc1nn(CC(F)(F)F)c2ccc(Nc3n[nH]c4cccnc34)cc12 [Example 116, N-(3-methyl-1-(2,2,2-trifluoroethyl)-1H-indazol-5-yl)-1H-pyrazolo[4,3-b]pyridin-3-amine] | 96 |
| Cc1nn(Cc2noc3ccccc23)c2ccc(Nc3n[nH]c4cccnc34)cc12 [Example 92, N-(1-(benzo[d]isoxazol-3-ylmethyl)-3-methyl-1H-indazol-5-yl)-1H-pyrazolo[4,3-b]pyridin-3-amine] | 81 |
| Cn1nc(-c2ccc(=O)[nH]c2)c2ccc(Nc3n[nH]c4cccnc34)cc21 [Example 179, 5-[1-methyl-6-(1H-pyrazolo[4,3-b]pyridin-3-ylamino)indazol-3-yl]-1H-pyridin-2-one] | 2720 |
| CCCCCn1nc(C)c2cc(Nc3n[nH]c4cccnc34)ccc21 [Example 91] | 19 |
| FC(F)(F)Cn1nc(Cl)c2cc(Nc3n[nH]c4cccnc34)ccc21 [Example 275, N-(3-chloro-1-(2,2,2-trifluoroethyl)-1H-indazol-5-yl)-1H-pyrazolo[4,3-b]pyridin-3-amine] | 2720 |
| CCC(C)n1nc(Cl)c2cc(Nc3n[nH]c4cccnc34)ccc21 (centres unmarked) [Example 286, N-(1-(sec-butyl)-3-chloro-1H-indazol-5-yl)-1H-pyrazolo[4,3-b]pyridin-3-amine] | > 10000 |
| Cn1nc(C(=O)N2CCOCC2)c2ccc(Nc3n[nH]c4cccnc34)cc21 [Example 167, [1-methyl-6-(1H-pyrazolo[4,3-b]pyridin-3-ylamino)indazol-3-yl]-morpholino-methanone] | 1580 |
| CC(C)CC1CC(=O)N(c2nn(C)c3cc(Nc4n[nH]c5cccnc45)ccc23)C1 (centres unmarked) [Example 36, N-(6-((1H-pyrazolo[4,3-b]pyridin-3-yl)amino)-1-methyl-1H-indazol-3-yl)-4-isobutylpyrrolidin-2-one] | 526 |
| c1cnc2c(Nc3cccc4c3cnn4CC3CCC3)n[nH]c2c1 [Example 34, N-(1-(cyclobutylmethyl)-1H-indazol-4-yl)-1H-pyrazolo[4,3-b]pyridin-3-amine] | 4300 |
| C=C(C)Cn1nc(C)c2cc(Nc3n[nH]c4nccnc34)ccc21 [Example 128, N-(3-methyl-1-(2-methylallyl)-1H-indazol-5-yl)-1H-pyrazolo[3,4-b]pyrazin-3-amine] | 49 |
| Cn1cc2cc(Nc3n[nH]c4nccnc34)ccc2n1 [Example 83] | 202 |
| CC(C)n1ncc2cc(Nc3n[nH]c4nccnc34)cnc21 [Example 153, N-(1-isopropyl-1H-pyrazolo[3,4-b]pyridin-5-yl)-1H-pyrazolo[3,4-b]pyrazin-3-amine] | 413 |
| CCCn1nc(C)c2cc(Nc3n[nH]c4cccnc34)ccc21 [Example 113, N-(3-methyl-1-propyl-1H-indazol-5-yl)-1H-pyrazolo[4,3-b]pyridin-3-amine] | 123 |
| Cn1nc(C(=O)NC2CC(F)(F)C2)c2ccc(Nc3n[nH]c4cccnc34)cc21 [Example 174] | 116 |
| Cc1nn(CC2CCC2)c2ccc(Nc3n[nH]c4nccnc34)cc12 [Example 73, N-(1-(cyclobutylmethyl)-3-methyl-1H-indazol-5-yl)-1H-pyrazolo[3,4-b]pyrazin-3-amine] | 186 |
| Cc1noc(Cn2nc(C)c3cc(Nc4n[nH]c5cccnc45)ccc32)n1 [Example 126, N-(3-methyl-1-((3-methyl-1,2,4-oxadiazol-5-yl)methyl)-1H-indazol-5-yl)-1H-pyrazolo[4,3-b]pyridin-3-amine] | 264 |
| Cc1nn(C(C)C)c2cc(Nc3n[nH]c4nccnc34)ccc12 [Example 18, N-(1-isopropyl-3-methyl-1H-indazol-6-yl)-1H-pyrazolo[3,4-b]pyrazin-3-amine] | > 10000 |
| Cc1cncc(-c2nn(C)c3cc(Nc4n[nH]c5cccnc45)ccc23)c1 [Example 178, N-(1-methyl-3-(5-methylpyridin-3-yl)-1H-indazol-6-yl)-1H-pyrazolo[4,3-b]pyridin-3-amine] | 4180 |
| c1cc2c(cnn2CC2CCC2)cc1Nc1n[nH]c2c1CCCC2 [Example 81, 1-(cyclobutylmethyl)-N-(4,5,6,7-tetrahydro-1H-indazol-3-yl)-1H-indazol-5-amine] | > 10000 |
| Cc1nn(C2CCOCC2)c2ccc(Nc3n[nH]c4cccnc34)cc12 [Example 117, N-(3-methyl-1-(tetrahydro-2H-pyran-4-yl)-1H-indazol-5-yl)-1H-pyrazolo[4,3-b]pyridin-3-amine] | 1460 |
| Cc1nn(CC(C)C)c2ccc(Nc3n[nH]c4cccnc34)cc12 [Example 112, N-(1-isobutyl-3-methyl-1H-indazol-5-yl)-1H-pyrazolo[4,3-b]pyridin-3-amine] | 95 |
| Cc1cc(Cn2ncc3c(Nc4n[nH]c5cccnc45)cccc32)no1 [Example 32, N-(1-((5-methylisoxazol-3-yl)methyl)-1H-indazol-4-yl)-1H-pyrazolo[4,3-b]pyridin-3-amine] | 571 |

| Compound | EC50 [nM] |
| --- | --- |
| Cn1nc(C(=O)N2CC[C@@H](F)C2)c2ccc(Nc3n[nH]c4cccnc34)cc21 [Example 168, [(3R)-3-fluoropyrrolidin-1-yl]-[1-methyl-6-(1H-pyrazolo[4,3-b]pyridin-3-ylamino)indazol-3-yl]methanone] | 903 |
| [2H]C([2H])([2H])Oc1nn(C)c2cc(Nc3n[nH]c4cccnc34)ccc12 [Example 240, N-(3-(methoxy-d3)-1-methyl-1H-indazol-6-yl)-1H-pyrazolo[4,3-b]pyridin-3-amine] | 294 |
| CC(C)n1nc(Cl)c2cc(Nc3n[nH]c4cccnc34)ccc21 [Example 280, N-(3-chloro-1-isopropyl-1H-indazol-5-yl)-1H-pyrazolo[4,3-b]pyridin-3-amine] | > 10000 |
| Cc1nn(C2CC2)c2ncc(Nc3n[nH]c4cccnc34)cc12 [Example 263, 1-cyclopropyl-3-methyl-N-(1H-pyrazolo[4,3-b]pyridin-3-yl)pyrazolo[3,4-b]pyridin-5-amine] | 410 |
| c1cnc2c(Nc3cnc4cnn(CC5CCC5)c4c3)n[nH]c2n1 [Example 149, N-(1-(cyclobutylmethyl)-1H-pyrazolo[4,3-b]pyridin-6-yl)-1H-pyrazolo[3,4-b]pyrazin-3-amine] | > 10000 |
| Cn1nc(C(=O)N2CC[C@H](F)C2)c2ccc(Nc3n[nH]c4cccnc34)cc21 [Example 171, [(3S)-3-fluoropyrrolidin-1-yl]-[1-methyl-6-(1H-pyrazolo[4,3-b]pyridin-3-ylamino)indazol-3-yl]methanone] | 765 |
| Cc1nn(CCO)c2ncc(Nc3n[nH]c4cccnc34)cc12 [Example 256, 2-[3-methyl-5-(1H-pyrazolo[4,3-b]pyridin-3-ylamino)pyrazolo[3,4-b]pyridin-1-yl]ethanol] | > 10000 |
| Cc1nn(C)c2ccc(Nc3n[nH]c4nccnc34)cc12 [Example 99, N-(1,3-dimethyl-1H-indazol-5-yl)-1H-pyrazolo[3,4-b]pyrazin-3-amine] | 757 |
| Cc1nn(CCC(C)C)c2ncc(Nc3n[nH]c4cccnc34)cc12 [Example 154, 1-isopentyl-3-methyl-N-(1H-pyrazolo[4,3-b]pyridin-3-yl)pyrazolo[3,4-b]pyridin-5-amine] | 170 |
| Cc1nn(C)c2cc(Nc3n[nH]c4cccnc34)ccc12 [Example 15, N-(1,3-dimethyl-1H-indazol-6-yl)-1H-pyrazolo[4,3-b]pyridin-3-amine] | 78 |
| Cc1nn(CC(=O)O)c2ccc(Nc3n[nH]c4cccnc34)cc12 [Example 135, 2-(5-((1H-pyrazolo[4,3-b]pyridin-3-yl)amino)-3-methyl-1H-indazol-1-yl)acetic acid] | 832 |
| CCC(F)(F)Cn1nc(C)c2cc(Nc3n[nH]c4cccnc34)ccc21 [Example 136, N-(1-(2,2-difluorobutyl)-3-methyl-1H-indazol-5-yl)-1H-pyrazolo[4,3-b]pyridin-3-amine] | 253 |
| Cn1cc2c(Cl)cc(Nc3n[nH]c4cccnc34)cc2n1 [Example 3, N-(4-chloro-2-methyl-2H-indazol-6-yl)-1H-pyrazolo[4,3-b]pyridin-3-amine] | 525 |
| Cn1cc2cc(Nc3n[nH]c4cccnc34)ccc2n1 [Example 56, N-(2-methyl-2H-indazol-5-yl)-1H-pyrazolo[4,3-b]pyridin-3-amine] | 315 |
| CCCOc1nn(C)c2cc(Nc3n[nH]c4cccnc34)ccc12 [Example 239, N-(1-methyl-3-propoxy-1H-indazol-6-yl)-1H-pyrazolo[4,3-b]pyridin-3-amine] | 171 |
| Cn1ncc2c(Cl)cc(Nc3n[nH]c4ccccc34)cc21 [Example 9, N-(4-chloro-1-methyl-1H-indazol-6-yl)-1H-indazol-3-amine] | 64 |
| Cc1cc(Cn2ncc3ncc(Nc4n[nH]c5nccnc45)cc32)no1 [Example 143, N-(1-((5-methylisoxazol-3-yl)methyl)-1H-pyrazolo[4,3-b]pyridin-6-yl)-1H-pyrazolo[3,4-b]pyrazin-3-amine] | > 10000 |
| Cc1nn(CC2CC2)c2ncc(Nc3n[nH]c4cccnc34)cc12 [Example 257, 1-(cyclopropylmethyl)-3-methyl-N-(1H-pyrazolo[4,3-b]pyridin-3-yl)pyrazolo[3,4-b]pyridin-5-amine] | > 10000 |
| Cn1nc(C2(C)CC2)c2ccc(Nc3n[nH]c4nccnc34)cc21 [Example 29, N-(1-methyl-3-(1-methylcyclopropyl)-1H-indazol-6-yl)-1H-pyrazolo[3,4-b]pyrazin-3-amine] | 25 |
| Cn1nc(Oc2ccc(C#N)cn2)c2ccc(Nc3n[nH]c4cccnc34)cc21 [Example 237, 6-((6-((1H-pyrazolo[4,3-b]pyridin-3-yl)amino)-1-methyl-1H-indazol-3-yl)oxy)nicotinonitrile] | 157 |
| Cn1nc(NC(=O)C(F)(F)F)c2ccc(Nc3n[nH]c4cccnc34)cc21 [Example 25, N-(6-((1H-pyrazolo[4,3-b]pyridin-3-yl)amino)-1-methyl-1H-indazol-3-yl)-2,2,2-trifluoroacetamide] | 313 |
| CCCn1nc(C)c2cc(Nc3n[nH]c4cccnc34)cnc21 [Example 264, 3-methyl-1-propyl-N-(1H-pyrazolo[4,3-b]pyridin-3-yl)pyrazolo[3,4-b]pyridin-5-amine] | 150 |

From US10526323B2, “Indazole and azaindazole substituted compounds as mGluR4 allosteric potentiators, compositions, and methods of treating neurological dysfunction” (Vanderbilt University, priority 2015, dated 2020)
